*1 amine or outer side, *2 acyl side, *3 side chain or, on linkers, in order; H or OH if unused. Where a SMILES comes first, the peptide text is derived from it. Where no end group is shown, it is not given here. [ ]: non-standard residue; d: D form. The star is where a group is joined. X2 = O=C([C@@H]1CC(O)CN1[*:1])[*:2]; Ac6c = NC1(C(=O)O)CCCCC1; Nle = CCCC[C@H](N)C(=O)O; X1 = CCCN1C(=O)CC(*)C1=O; Ac5c = NC1(C(=O)O)CCCC1; Aib = CC(C)(N)C(=O)O
Columns and labels:
[1] = target: T1, human recombinant GIP receptor (Homo sapiens, UniProt P48546); assay: In vitro hGIP receptor binding assay ([125I]GIP displacement, CHO-K1 membranes)
T1 construct: expressed in transfected cells; host or cells: CHO-K1 clonal cells (membranes)
T1 sequence (P48546 22-466): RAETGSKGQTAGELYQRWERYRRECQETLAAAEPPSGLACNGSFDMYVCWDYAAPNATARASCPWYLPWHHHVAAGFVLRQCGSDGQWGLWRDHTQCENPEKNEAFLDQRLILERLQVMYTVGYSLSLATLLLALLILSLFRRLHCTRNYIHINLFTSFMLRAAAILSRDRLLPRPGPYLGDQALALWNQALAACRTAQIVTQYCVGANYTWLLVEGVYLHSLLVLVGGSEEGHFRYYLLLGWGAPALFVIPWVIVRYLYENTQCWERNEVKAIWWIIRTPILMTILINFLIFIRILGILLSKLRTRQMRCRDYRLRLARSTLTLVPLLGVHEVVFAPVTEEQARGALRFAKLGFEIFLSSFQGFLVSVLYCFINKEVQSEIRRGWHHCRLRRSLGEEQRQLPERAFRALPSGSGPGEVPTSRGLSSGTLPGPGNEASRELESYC
Excerpt: A. In Vitro hGIP Receptor Binding Assay

[2] = Rat plasma half-life assay; assay type: in vitro ADME; details: rat plasma, 37° C., LC-MS; read-out: Rat Plasma T½ (converted)
[3] = Human plasma half-life assay; assay type: in vitro ADME; details: human plasma, 37° C., LC-MS; read-out: Human Plasma T½ (converted)

Molecule | Ki [1] [nM] | half-life at 0.1 mg/ml [2] [h] | half-life at 0.1 mg/ml [3] [h]
Y[Aib]EGTF[Ac6c]SDYSIAMDKIHQQDFVNWLLAQKGKKNDWKHNI[Aib]Q-OH [Example 23, (Aib^2, 41, A6c^7)hGIP(1-42)-OH] | 0.87 | 6.7 | > 48
CC[C@H](C)[C@H](NC(=O)[C@H](CCCCN)NC(=O)[C@H](CC(=O)O)NC(=O)[C@H](CCSC)NC(=O)[C@H](C)NC(=O)[C@@H](NC(=O)C1(NC(=O)[C@H](Cc2ccc(O)cc2)NC(=O)[C@H](CC(=O)O)NC(=O)[C@H](CO)NC(=O)[C@@H](NC(=O)[C@H](Cc2ccccc2)NC(=O)[C@@H](NC(=O)CNC(=O)[C@H](CCC(=O)O)NC(=O)[C@@H](C)NC(=O)[C@@H](N)Cc2ccc(O)cc2)[C@@H](C)O)[C@@H](C)CC)CCCC1)[C@@H](C)CC)C(=O)N[C@@H](Cc1c[nH]cn1)C(=O)N[C@@H](CCC(N)=O)C(=O)N[C@@H](CCC(N)=O)C(=O)N[C@@H](CC(=O)O)C(=O)N[C@@H](Cc1ccccc1)C(=O)N[C@H](C(=O)N[C@@H](CC(N)=O)C(=O)N[C@@H](Cc1c[nH]c2ccccc12)C(=O)N[C@@H](CC(C)C)C(=O)N[C@@H](CC(C)C)C(=O)N[C@@H](C)C(=O)N[C@@H](CCC(N)=O)C(=O)N[C@@H](CCCCN)C(=O)N[C@@H](Cc1c[nH]cn1)C(N)=O)C(C)C [Example 122, (D-Ala^2, A5c^11, His^31)hGIP(1-31)-NH2] (H-Y[dA]EGTFISDY[Ac5c]IAMDKIHQQDFVNWLLAQKH-NH2; N-terminus assumed) | 0.87 | – | –
CC[C@H](C)[C@H](NC(=O)[C@H](CCCCN)NC(=O)[C@H](CC(=O)O)NC(=O)C1(NC(=O)[C@H](C)NC(=O)[C@@H](NC(=O)C(C)(C)NC(=O)[C@H](Cc2ccc(O)cc2)NC(=O)[C@H](CC(=O)O)NC(=O)[C@H](CO)NC(=O)[C@@H](NC(=O)[C@H](Cc2ccccc2)NC(=O)[C@@H](NC(=O)CNC(=O)[C@H](CCC(=O)O)NC(=O)C(C)(C)NC(=O)[C@@H](N)Cc2ccc(O)cc2)[C@@H](C)O)[C@@H](C)CC)[C@@H](C)CC)CCCCC1)C(=O)N[C@@H](Cc1c[nH]cn1)C(=O)N[C@@H](CCC(N)=O)C(=O)N[C@@H](CCC(N)=O)C(=O)N[C@@H](CC(=O)O)C(=O)N[C@@H](Cc1ccccc1)C(=O)N[C@H](C(=O)N[C@@H](CC(N)=O)C(=O)N[C@@H](Cc1c[nH]c2ccccc12)C(=O)N[C@@H](CC(C)C)C(=O)N[C@@H](CC(C)C)C(=O)N[C@@H](C)C(=O)N[C@@H](CCC(N)=O)C(=O)N[C@@H](CCCCN)C(N)=O)C(C)C [Example 38, (Aib^2, 11, A6c^14)hGIP(1-30)-NH2] (H-Y[Aib]EGTFISDY[Aib]IA[Ac6c]DKIHQQDFVNWLLAQK-NH2; N-terminus assumed) | 0.73 | > 54 | 49.1
Y[Aib]EGTF[Ac6c]SDYSI[Aib][Nle]DKIHQQDFVNWLLAQKGKKNDWKHNITQ-OH [Example 21, (Aib^2, 13, A6c^7, Nle^14)hGIP(1-42)-OH] | 0.3 | 12.3 | > 48
CC[C@H](C)[C@H](NC(=O)[C@H](CCCCN)NC(=O)[C@H](CC(=O)O)NC(=O)[C@H](CCSC)NC(=O)[C@H](C)NC(=O)[C@@H](NC(=O)C1(NC(=O)[C@H](Cc2ccc(O)cc2)NC(=O)[C@H](CC(=O)O)NC(=O)[C@H](CO)NC(=O)[C@@H](NC(=O)[C@H](Cc2ccccc2)NC(=O)[C@@H](NC(=O)CNC(=O)[C@@H]2CCCN2C(=O)[C@H](C)NC(=O)[C@@H](N)Cc2ccc(O)cc2)[C@@H](C)O)[C@@H](C)CC)CCCC1)[C@@H](C)CC)C(=O)N[C@@H](Cc1c[nH]cn1)C(=O)N[C@@H](CCC(N)=O)C(=O)N[C@@H](CCC(N)=O)C(=O)N[C@@H](CC(=O)O)C(=O)N[C@@H](Cc1ccccc1)C(=O)N[C@H](C(=O)N[C@@H](CC(N)=O)C(=O)N[C@@H](Cc1c[nH]c2ccccc12)C(=O)N[C@@H](CC(C)C)C(=O)N[C@@H](CC(C)C)C(=O)N[C@@H](C)C(=O)N[C@@H](CCC(N)=O)C(=O)N[C@@H](CCCCN)C(N)=O)C(C)C [Example 98, (Pro^3, A5c^11)hGIP(1-30)-NH2] (H-YAPGTFISDY[Ac5c]IAMDKIHQQDFVNWLLAQK-NH2; N-terminus assumed) | 65.9 | – | –
CCCC[C@H](NC(=O)C(C)(C)NC(=O)[C@@H](NC(=O)[C@H](CO)NC(=O)[C@H](Cc1ccc(O)cc1)NC(=O)[C@H](CC(=O)O)NC(=O)[C@H](CO)NC(=O)[C@@H](NC(=O)[C@H](Cc1ccccc1)NC(=O)[C@@H](NC(=O)CNC(=O)[C@@H]1C(O)CCN1C(=O)[C@H](C)NC(=O)[C@@H](N)Cc1ccc(O)cc1)[C@@H](C)O)[C@@H](C)CC)[C@@H](C)CC)C(=O)N[C@@H](CC(=O)O)C(=O)N[C@@H](CCCCN)C(=O)N[C@H](C(=O)N[C@@H](Cc1c[nH]cn1)C(=O)N[C@@H](CCC(N)=O)C(=O)N[C@@H](CCC(N)=O)C(=O)N[C@@H](CC(=O)O)C(=O)N[C@@H](Cc1ccccc1)C(=O)N[C@H](C(=O)N[C@@H](CC(N)=O)C(=O)N[C@@H](Cc1c[nH]c2ccccc12)C(=O)N[C@@H](CC(C)C)C(=O)N[C@@H](CC(C)C)C(=O)N[C@@H](C)C(=O)N[C@@H](CCC(N)=O)C(=O)N[C@@H](CCCCN)C(=O)NCC(=O)N[C@@H](CCCCN)C(=O)N[C@@H](CCCCN)C(=O)N[C@@H](CC(N)=O)C(=O)N[C@@H](CC(=O)O)C(=O)N[C@@H](Cc1c[nH]c2ccccc12)C(=O)N[C@@H](CCCCN)C(=O)N[C@@H](Cc1c[nH]cn1)C(=O)N[C@@H](CC(N)=O)C(=O)N[C@H](C(=O)N[C@H](C(=O)N[C@@H](CCC(N)=O)C(=O)O)[C@@H](C)O)[C@@H](C)CC)C(C)C)[C@@H](C)CC (some centres unmarked) [Example 70, (3Hyp^3, Aib^13, Nle^14)hGIP(1-42)-OH] | – | 1.5 | > 33
Y[Aib]EGTF[Ac6c]SDYSIAMDKIHQQDFVNWLLAQKGKKNDC(X1)KHNITQ-OH [Example 81, [Aib^2, A6c^7, Cys(Psu)^36]hGIP(1-42)-OH] | – | 6.1 | 8.2
CC[C@H](C)[C@H](NC(=O)[C@H](CO)NC(=O)[C@H](Cc1ccc(O)cc1)NC(=O)[C@H](CC(=O)O)NC(=O)[C@H](CO)NC(=O)C1(NC(=O)[C@H](Cc2ccccc2)NC(=O)[C@@H](NC(=O)CNC(=O)[C@H](CCC(=O)O)NC(=O)C(C)(C)NC(=O)[C@@H](N)Cc2ccc(O)cc2)[C@@H](C)O)CCCCC1)C(=O)N[C@@H](C)C(=O)N[C@@H](CCSC)C(=O)N[C@@H](CC(=O)O)C(=O)N[C@@H](CCCCN)C(=O)N[C@H](C(=O)N[C@@H](Cc1c[nH]cn1)C(=O)N[C@@H](CCC(N)=O)C(=O)N[C@@H](CCC(N)=O)C(=O)N[C@@H](CC(=O)O)C(=O)N[C@@H](Cc1ccccc1)C(=O)N[C@H](C(=O)N[C@@H](CC(N)=O)C(=O)N[C@@H](Cc1c[nH]c2ccccc12)C(=O)N[C@@H](CC(C)C)C(=O)N[C@@H](CC(C)C)C(=O)N[C@@H](C)C(=O)N[C@@H](CCC(N)=O)C(=O)N[C@@H](CCCCN)C(N)=O)C(C)C)[C@@H](C)CC [Example 52, (Aib^2, A6c^7)hGIP(1-30)-NH2] | – | 28.2 | 14
Y[Aib]EGTFISDY[Aib]IA[Nle]DKIHQQDFVNWLLAQKGKKNDWKHNITQ-OH [Example 45, (Aib^2, 11, Nle^14)hGIP(1-42)-OH] | – | 11.6 | 18.2
Y[Aib]EGTFIS[Aib]YSIAMDKIHQQDFVNWLLAQKGKKNDWKHNITQ-OH [Example 2, (Aib^2, 9)hGIP(1-42)-OH] | – | 5.6 | 9.4
Y[Aib]EG[Ac5c]FISDYSIAMDKIHQQDFVNWLLAQKGKKNDWKHNITQ-OH [Example 5, (Aib^2, A5c^5)hGIP(1-42)-OH] | – | 6.1 | > 48
CC[C@H](C)[C@H](NC(=O)[C@H](CO)NC(=O)[C@H](Cc1ccc(O)cc1)NC(=O)[C@H](CC(=O)O)NC(=O)[C@H](CO)NC(=O)[C@@H](NC(=O)[C@H](Cc1ccccc1)NC(=O)C1(NC(=O)CNC(=O)[C@H](CCC(=O)O)NC(=O)C(C)(C)NC(=O)[C@@H](N)Cc2ccc(O)cc2)CCCC1)[C@@H](C)CC)C(=O)N[C@@H](C)C(=O)N[C@@H](CCSC)C(=O)N[C@@H](CC(=O)O)C(=O)N[C@@H](CCCCN)C(=O)N[C@H](C(=O)N[C@@H](Cc1c[nH]cn1)C(=O)N[C@@H](CCC(N)=O)C(=O)N[C@@H](CCC(N)=O)C(=O)N[C@@H](CC(=O)O)C(=O)N[C@@H](Cc1ccccc1)C(=O)N[C@H](C(=O)N[C@@H](CC(N)=O)C(=O)N[C@@H](Cc1c[nH]c2ccccc12)C(=O)N[C@@H](CC(C)C)C(=O)N[C@@H](CC(C)C)C(=O)N[C@@H](C)C(=O)N[C@@H](CCC(N)=O)C(=O)N[C@@H](CCCCN)C(N)=O)C(C)C)[C@@H](C)CC [Example 11, (Aib^2, A5c^5)hGIP(1-30)-NH2] | – | > 48 | 44.4
Y[Aib]EGTFISDY[Aib]IAMDKIHQQDFVNWLLAQKGKKNDWKHNITQ-OH [Example 1, (Aib^2, 11)hGIP(1-42)-OH] | – | 3.9 | > 48
H-YA[X2]GTFISDY[Ac5c]IAMDKIHQQDFVNWLLAQKGKKNDWKHNITQ-OH [Example 87, (4Hyp^3, A5c^11)hGIP(1-42)-OH] | – | 3.4 | 38.7

Source: patent US9074014B2 (Ipsen Pharma S.A.S., priority 2008, dated 2015)
